Assay results as given in patent publication US12139477B2, “Compounds, salts thereof and methods for treatment of diseases” (ACADIA PHARMACEUTICALS INC., priority 2017, dated 2024).
Counter-ions that a name gives are not always drawn.

Key:
[1] = as stated by the drug label; cited from earlier work
[2] = molecular target: T1, late hNav1.5 channel current (Homo sapiens, UniProt Q14524); assay: NaV1.5 (for pimavanserin): late hNav1.5 current, HEK-293, ATX-II activated (CR-CLE); assay type: cell-based
T1 sequence (Q14524 whole entry): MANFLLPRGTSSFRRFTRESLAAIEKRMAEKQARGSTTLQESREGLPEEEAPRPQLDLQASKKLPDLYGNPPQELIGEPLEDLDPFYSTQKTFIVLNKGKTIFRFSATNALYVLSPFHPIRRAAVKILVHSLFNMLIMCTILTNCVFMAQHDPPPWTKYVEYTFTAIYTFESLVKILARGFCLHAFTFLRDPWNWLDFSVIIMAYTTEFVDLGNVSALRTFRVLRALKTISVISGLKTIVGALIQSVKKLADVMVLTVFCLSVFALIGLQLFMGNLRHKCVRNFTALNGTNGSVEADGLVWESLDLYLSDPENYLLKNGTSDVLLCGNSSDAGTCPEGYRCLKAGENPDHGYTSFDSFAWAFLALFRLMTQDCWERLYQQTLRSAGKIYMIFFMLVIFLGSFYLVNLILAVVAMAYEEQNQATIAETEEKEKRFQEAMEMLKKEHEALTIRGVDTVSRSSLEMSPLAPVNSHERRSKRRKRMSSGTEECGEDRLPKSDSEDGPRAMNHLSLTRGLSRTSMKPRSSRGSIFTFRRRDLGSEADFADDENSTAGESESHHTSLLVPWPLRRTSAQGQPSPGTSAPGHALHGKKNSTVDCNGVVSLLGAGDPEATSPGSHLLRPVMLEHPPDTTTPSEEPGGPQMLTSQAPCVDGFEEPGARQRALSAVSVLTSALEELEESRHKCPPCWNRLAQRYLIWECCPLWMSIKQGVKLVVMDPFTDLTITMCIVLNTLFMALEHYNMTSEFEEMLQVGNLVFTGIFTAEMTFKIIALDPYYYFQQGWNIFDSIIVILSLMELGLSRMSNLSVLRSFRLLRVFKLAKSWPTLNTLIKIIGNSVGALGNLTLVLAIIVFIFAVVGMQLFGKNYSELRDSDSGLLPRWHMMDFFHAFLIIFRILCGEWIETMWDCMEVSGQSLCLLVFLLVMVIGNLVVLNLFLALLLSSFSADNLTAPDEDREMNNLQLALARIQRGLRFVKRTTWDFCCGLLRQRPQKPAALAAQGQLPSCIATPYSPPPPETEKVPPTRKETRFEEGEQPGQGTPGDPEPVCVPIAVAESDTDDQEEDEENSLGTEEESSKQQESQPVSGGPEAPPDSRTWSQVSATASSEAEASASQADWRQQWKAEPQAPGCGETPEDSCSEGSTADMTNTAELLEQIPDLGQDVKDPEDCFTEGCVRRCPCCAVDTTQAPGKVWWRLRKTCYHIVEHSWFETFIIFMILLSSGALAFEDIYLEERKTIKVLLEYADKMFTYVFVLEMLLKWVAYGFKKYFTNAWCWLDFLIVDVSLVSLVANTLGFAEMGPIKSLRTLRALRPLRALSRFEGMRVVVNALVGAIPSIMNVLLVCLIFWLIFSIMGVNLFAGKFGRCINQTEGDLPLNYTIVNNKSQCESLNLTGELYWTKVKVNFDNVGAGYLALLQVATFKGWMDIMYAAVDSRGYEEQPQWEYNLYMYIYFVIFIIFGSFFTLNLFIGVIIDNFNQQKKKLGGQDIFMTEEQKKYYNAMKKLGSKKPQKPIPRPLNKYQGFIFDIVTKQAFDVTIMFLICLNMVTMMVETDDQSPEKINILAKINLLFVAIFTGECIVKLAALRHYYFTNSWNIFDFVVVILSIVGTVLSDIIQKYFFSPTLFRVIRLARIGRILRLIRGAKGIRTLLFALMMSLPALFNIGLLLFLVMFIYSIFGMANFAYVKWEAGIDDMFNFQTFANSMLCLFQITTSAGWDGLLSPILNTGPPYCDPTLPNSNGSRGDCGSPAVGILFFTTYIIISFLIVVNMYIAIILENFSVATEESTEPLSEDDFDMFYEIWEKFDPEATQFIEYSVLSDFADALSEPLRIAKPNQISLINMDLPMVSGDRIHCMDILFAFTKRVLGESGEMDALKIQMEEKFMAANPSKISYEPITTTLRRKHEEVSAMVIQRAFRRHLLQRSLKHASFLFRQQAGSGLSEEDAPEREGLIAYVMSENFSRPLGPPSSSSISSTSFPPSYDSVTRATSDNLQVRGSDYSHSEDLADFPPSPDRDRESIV
Procedure: (§1) Nonlinear least squares fits were solved with the Solver add-in for Excel 2003 or later (Microsoft, Redmond, WA) and the IC50 was calculated.
0.1 μM ATX-II was omitted from the vehicle control solution used during initial gigaohm seal formation, transition to whole-cell patch clamp configuration and preliminary baseline recording before activation of late Nav1.5 current with 0.1 μM ATX-II. […] Positive Control Article: • Name: Ranolazine dihydrochloride • Source: Tocris • Batch Number: 2A/215231 • Molecular Weight: 509.47 g/mol • Purity: 98.7% • Storage Conditions: Room temperature • Rationale for Selection: Previous results have shown that 100 μM ranolazine dihydrochloride inhibits INa,L by approximately 85% End Blocker • Name: Lidocaine • Source: Sigma-Aldrich • Lot Number: MKBX2132V • Molecular Weight (g/mol): 234.34 • Storage Conditions: Room temperature • Rationale for Selection: Lidocaine is an inhibitor of peak hNav1.5 and late hNav1.5 currents. Each recording will end with application of 2 mM lidocaine to determine the amplitude of endogenous currents. […]
Electrophysiological Procedures: Cells were superfused with vehicle control solution without ATX-II (HB-PS+0.3% DMSO) until after whole-cell configuration was achieved and a stable baseline current was recorded. […]

[3] = molecular target: hCav1.2/β2/α2δ channels (Homo sapiens, UniProt Q13936); assay: CaV1.2 manual patch clamp, CHO cells (CR-CLE); assay type: cell-based; conditions: manual patch clamp, room temperature, read-out: CaV 1.2 IC50
Description: Stocks were maintained in cryogenic storage. […] Each culture dish was identified by a notation of channel name, passage number, and date.
Rationale for Selection of Ion Channel and Expression Systems: Reduction of ICa,L is associated with action potential shortening in atrial fibrillation (Van Wagoner, et al., Circ Res 85:428-436 (1999)) while augmentation of ICa,L current may produce action potential prolongation (Ahmmed, et al., Circ Res 86:558-570 (2000)) and early after depolarizations (January, et al., Circ Res 62:563-571 (1988)). ICa.L is produced by the combination of calcium channel subunits encoded by CACNA1C (α1-subunit), CACNB2 (β2-subunit) and CACNA2D1 (α2δ-subunit) cDNAs.
• Organism: Cricetulus griseus • Tissue: Ovary; transfected with human CACNA1C • (α1-subunit), CACNB2 (β2-subunit), and • CACNA2D1 (α2δ-subunit) cDNAs • Morphology: Epithelial • Age/Stage: Adult • Source Strain: ATCC, Manassas, VA • Source Substrain: CR-CLE
CHO Cell Culture Procedures: CHO cells were stably co-transfected with human CACNA1C (α1-subunit), CACNB2 (β2-subunit), and CACNA2D1 (α2δ-subunit) cDNAs. Stable transfectants were selected by coexpression of the cDNAs with antibiotic resistance genes for blasticidin, hygromycin, G418, and zeocin. Selection pressure was maintained by including these antibiotics in the culture medium. Cells were cultured in Ham's F12 Medium supplemented with 10% fetal bovine serum, penicillin-streptomycin (100 units/mL), blasticidin (10 μg/mL), zeocin (400 μg/mL), G418 (250 μg/mL) and hygromycin (250 μg/mL). To avoid Ca^2+-induced toxicity, verapamil (3 μmol/L) was added to the cultured cells.
hCav1.2/β2/α2δ-CHO is a tetracycline-inducible cell line. To induce expression, tetracycline at a final concentration of 1 μg/mL was added to media lacking the selection antibiotics. Currents were recorded greater than 16 hours post-induction.
Treatment Groups: All experiments were performed at room temperature. Each cell acted as its own control.
Each concentration was tested in at least three cells (n≥3).
Positive Control Group: The positive control article nifedipine (Sigma-Aldrich) was tested in two cells (n=2) at 0.1 μM. Previous results have shown that nifedipine at 0.1 μM inhibits hCav1.2 current by approximately 90%.
Electrophysiological Procedures: Cells were superfused with vehicle control solution. Micropipette solution for whole cell patch clamp recordings was composed of (mM): Cs-methanesulfonate (MES), 130; TEA-Cl, 20, MgCl2, 1; EGTA, 10; Mg-ATP, 4; Tris-GTP, 0.3, phosphocreatine di-(Tris) salt, 14, creatine phosphokinase, 50 U/mL, and HEPES, 10; pH adjusted to 7.2 with N-methyl-D-glucamine or CsOH. Micropipette solution was prepared in batches, aliquoted, stored frozen, and a fresh aliquot thawed each day. […] Before digitization, current records were low-pass filtered at one-fifth of the sampling frequency.
Experimental Procedures: Onset and steady inhibition was evaluated at a test potential of 0 mV (150 ms duration), repeated at ten-second intervals from a holding potential of −40 mV. Peak current was measured during the step to 0 mV. Peak current was monitored until a new steady state was achieved. hCav1.2 current was monitored until a new steady state was achieved and a steady state was maintained for at least 20 s before applying test article or positive control article formulations. […]
as §1

[4] = molecular target: T1, late hNav1.5 channel current; conditions: Oliveira, et al., J. Biol. Chem. 279 (2004); read-out: EC50 for increase of INa,L; cited from earlier work

CC(C)COc1ccc(CNC(=O)N(Cc2ccc(F)cc2)C2CCN(C)CC2)cc1 [Pimavanserin]
effect on QT interval [1]: prolongs the QT interval
IC50 ([2]; read-out: NaV 1.5 IC50): 1200 nM
IC50 [3]: 1200 nM

COc1ccccc1OCC(O)CN1CCN(CC(=O)Nc2c(C)cccc2C)CC1 (centres unmarked) [ranolazine dihydrochloride, Ranolazine dihydrochloride]
inhibition at 100 µM ([2]; HEK293, 100 μM, positive control, previous results, read-out: inhibition of INa,L): ~85%

ATX-II: "Late hNav1.5 Current Agonist"; "ATX-II increases INa,L"; Molecular Weight 4935; Source: Alomone Labs
EC50 [4]: ~4 nM
